Results reported in patent US9611221B2, “Histone demethylase inhibitors” (CELGENE QUANTICEL RESEARCH, INC., priority 2012, dated 2017).

Molecular target: JMJD2C (Homo sapiens (Human), UniProt Q9H3R0)
Assay: JMJD2C in vitro enzyme inhibition assay (TR-FRET)
Format: biochemical
Conditions: 0.3 nM JMJD2C, 300 nM H3K9me3-biotin peptide, 2 μM alpha-ketoglutaric acid
Text: This assay determines the ability of a test compound to inhibit Jarid1A, Jarid1B, and JMJD2C demethylase activity. Baculovirus expressed Jarid1A (GenBank Accession #NM_001042603, AA1-1090) was purchased from BPS Bioscience (Cat#50110). Baculovirus expressed Jarid1B (GenBank Accession #NM_006618, AA 2-751) was purchased from BPS Bioscience (Cat #50121) or custom made by MolecularThroughput. Baculovirus expressed JMJD2C (GenBank Accession #BC143571, AA 2-372) was purchased from BPS Bioscience (Cat#50105).
The ability of test compounds to inhibit the activity of JMJD2C was determined in 384-well plate format under the following reaction conditions: 0.3 nM JMJD2C, 300 nM H3K9me3-biotin labeled peptide (Anaspec cat #64360), 2 μM alpha-ketoglutaric acid in assay buffer of 50 mM HEPES, pH7.3, 0.005% Brij35, 0.5 mM TCEP, 0.2 mg/ml BSA, 50 μM sodium L-ascorbate, and 2 μM ammonium iron(II) sulfate. Reaction product was determined quantitatively by TR-FRET after the addition of detection reagent Phycolink Streptavidin-allophycocyanin (Prozyme) and Europium-anti-di-methylated histone H3 lysine 9 (H3K9me2) antibody (PerkinElmer) in the presence of 5 mM EDTA in LANCE detection buffer (PerkinElmer) at a final concentration of 50 nM and 1 nM, respectively.
The reaction mixture was incubated at room temperature for 30 minutes, and terminated by the addition of 6 μl of 5 mM EDTA in LANCE detection buffer containing 100 nM Phycolink Streptavidin-allophycocyanin and 2 nM Europium-anti-H3K9me2 antibody. Plates were read by EnVisionMultilabel Reader in TR-FRET mode (excitation at 320 nm, emission at 615 nm and 665 nm) after 1 hour incubation at room temperature. A ratio was calculated (665/615) for each well and fitted to determine inhibition constant (IC50).

JMJD2C, sequence (Q9H3R0 2-372): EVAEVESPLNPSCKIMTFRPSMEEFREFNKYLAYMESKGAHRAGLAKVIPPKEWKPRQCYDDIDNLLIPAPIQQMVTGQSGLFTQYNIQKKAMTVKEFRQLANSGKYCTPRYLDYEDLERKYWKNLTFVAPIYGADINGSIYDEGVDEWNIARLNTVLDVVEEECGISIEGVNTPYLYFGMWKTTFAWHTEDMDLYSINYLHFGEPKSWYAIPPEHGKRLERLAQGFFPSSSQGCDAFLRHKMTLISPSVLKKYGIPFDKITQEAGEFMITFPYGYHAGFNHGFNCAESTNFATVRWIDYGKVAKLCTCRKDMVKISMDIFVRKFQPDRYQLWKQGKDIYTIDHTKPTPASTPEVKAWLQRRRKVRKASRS

3-{[(6-chloro-1,2,3,4-tetrahydronaphthalen-1- yl)methyl]amino}pyridine-4-carboxylic acid [Example 68]
IC50: 100 to 1000 nM

3-{[(6-chloro-1-hydroxy-1,2,3,4- tetrahydronaphthalen-1- yl)methyl]amino}pyridine-4-carboxylic acid [Example 67]
IC50: 100 to 1000 nM

3-{[(7-fluoro-3,4-dihydro-2H-chromen-4- yl)methyl]amino}pyridine-4-carboxylic acid [Example 65]
IC50: ≤ 100 nM

CC(C)Oc1ccc(CNc2cnccc2C(=O)O)cc1 [Example 11, 3-{[4-(propan-2-yloxy)benzyl]amino}pyridine-4-carboxylic acid]
IC50: 100 to 1000 nM

O=C(O)c1ccncc1NCC1=CCCc2ccc(F)cc21 [Example 51, 3-{[(7-fluoro-3,4-dihydronaphthalen-1-yl)methyl]amino}pyridine-4-carboxylic acid]
IC50: 100 to 1000 nM

Cc1cc(C)c2c(c1)C(CNc1cnccc1C(=O)O)CCC2 (stereo not shown) [Example 52, 3-{[(5,7-dimethyl-1,2,3,4-tetrahydronaphthalen-1-yl)methyl]amino}pyridine-4-carboxylic acid]
IC50: 1000 to 10000 nM

O=C(O)c1ccncc1NCC1CCCc2c(F)cccc21 (stereo not shown) [Example 54, 3-{[(5-fluoro-1,2,3,4-tetrahydronaphthalen-1-yl)methyl]amino}pyridine-4-carboxylic acid]
IC50: 100 to 1000 nM

O=C(O)c1ccncc1NCC1(O)CCCc2c(F)cccc21 (stereo not shown) [Example 55, 3-{[(5-fluoro-1-hydroxy-1,2,3,4-tetrahydronaphthalen-1-yl)methyl]amino}pyridine-4-carboxylic acid]
IC50: 100 to 1000 nM

O=C(O)c1ccncc1NC[C@H]1CCCc2c(F)cccc21 [Example 56, 3-({[(1S)-5-fluoro-1,2,3,4-tetrahydronaphthalen-1-yl]methyl}amino)pyridine-4-carboxylic acid]
IC50: ≤ 100 nM

O=C(O)c1ccncc1NC[C@@H]1CCCc2c(F)cccc21 [Example 57, 3-({[(1R)-5-fluoro-1,2,3,4-tetrahydronaphthalen-1-yl]methyl}amino)pyridine-4-carboxylic acid]
IC50: 100 to 1000 nM

CC1(C)CCC(CNc2cnccc2C(=O)O)c2ccccc21 (stereo not shown) [Example 59, 3-{[(4,4-dimethyl-1,2,3,4-tetrahydronaphthalen-1-yl)methyl]amino}pyridine-4-carboxylic acid]
IC50: 100 to 1000 nM

COc1ccc2c(c1)CCC[C@@H]2CNc1cnccc1C(=O)O [Example 61, 3-({[(1S)-6-methoxy-1,2,3,4-tetrahydronaphthalen-1-yl]methyl}amino)pyridine-4-carboxylic acid]
IC50: 100 to 1000 nM

COc1ccc2c(c1)CCC[C@H]2CNc1cnccc1C(=O)O [Example 62, 3-({[(1R)-6-methoxy-1,2,3,4-tetrahydronaphthalen-1-yl]methyl}amino)pyridine-4-carboxylic acid]
IC50: 100 to 1000 nM

CC(C)Oc1ccc2c(c1)CCCC2CNc1cnccc1C(=O)O (stereo not shown) [Example 64]
IC50: 100 to 1000 nM

O=C(O)c1ccncc1NCC1CCOc2cc(Cl)ccc21 (stereo not shown) [Example 66, 3-{[(7-chloro-3,4-diydro-2H-chromen-4-y)methyl]amino}pyridine-4-carboxylic acid]
IC50: 100 to 1000 nM

O=C(O)c1ccncc1NCC1CCOc2cc(-c3ccccc3)ccc21 (stereo not shown) [Example 69, 3-{[(7-phenyl-3,4-dihydro-2H-chromen-4-yl)methyl]amino}pyridine-4-carboxylic acid]
IC50: 100 to 1000 nM

O=C(O)c1ccncc1NCC1CCOc2cc(F)ccc21 (stereo not shown) [Example 70, 3-{[(7-fluoro-3,4-dihydro-2H-chromen-4-yl)methyl]amino}pyridine-4-carboxylic acid]
IC50: 100 to 1000 nM

O=C(O)c1ccncc1NCC1CCOc2c(F)cccc21 (stereo not shown) [Example 71, 3-{[(8-fluoro-3,4-dihydro-2H-chromen-4-yl)methyl]amino}pyridine-4-carboxylic acid]
IC50: ≤ 100 nM

O=C(O)c1ccncc1NCC1CCCc2ccc(Cl)cc21 (stereo not shown) [Example 72, 3-{[(7-chloro-1,2,3,4-tetrahydronaphthalen-1-yl)methyl]amino}pyridine-4-carboxylic acid]
IC50: 100 to 1000 nM
